Test results taken from patent US20220202754A1, “USES OF PANTOTHENIC ACID IN PREPARATION OF A COMPOSITION FOR TREATING AND/OR PREVENTING TUMORS” (REVAISSANT (SHENZHEN) BIOSCIENCES CO., LTD., priority 2019, published 2022).

Assays:
[1] = test system: CD8+ T lymphocytes in the liver tumor microenvironment; assay: Relative amount of CD8+ T lymphocytes in the tumor microenvironment by flow cytometry; type: in vivo, C57BL/6 mice; conditions: for increase of relative amount of CD8+ T lymphocytes in the liver tumor microenvironment: one typical mouse per group, FIG. 6
Text: Experimental animals: Twenty-seven C57BL/6 mice aged 3 to 4 weeks old in good mental state were purchased from the Experimental Animal Center of Sun Yat-sen University. The mice were randomly divided into 3 groups, nine mice for each group, and the 3 groups were a control group (the first group), a pantothenic acid group (the second group) and a Vitamin E control group (the third group) respectively. The 3 groups of mice were continually administered by gavage with pure water, pantothenic acid (at a concentration of 0.02 g/ml, purchased from the Sigma official website) and Vitamin E (at a concentration of 0.02 g/ml, purchased from the Sigma official website) for 3 to 4 weeks, respectively. After the mouse tumor (liver cancer) cells HEPA1-6 grew at logarithmic phase, they were digested with trypsin, and culture medium was neutralized. After centrifugation, the cells were collected, washed twice with DPBS to remove residual serum. Finally, the cells were redissolved with DPBS. After cell counting was completed, each mouse was subcutaneously inoculated with 10^6 cells into right axilla and continually treated by gavage, respectively, and the tumor-bearing mice were killed after 2 to 3 weeks. After dissection, the sizes of the subcutaneously transplanted tumors were measured, and the tumor cells were collected in situ. A relative amount of the CD8^+ T lymphocytes in the tumor microenvironment was detected and analyzed by flow cytometry.

[2] = test system: liver cancer cells (HEPA1-6) transplanted tumors; assay: Pantothenic acid for tumor prevention and treatment in mice: size of subcutaneously transplanted tumors; type: in vivo, C57BL/6 mice; conditions: gavage 0.02 g/ml; HEPA1-6 subcutaneous tumor; p<0.01; FIG. 4 and FIG. 5
Text: FIG. 3 is a schematic diagram of the experimental procedure for detecting pantothenic acid, the metabolite of the intestinal bacteria to enhance an accumulation of CD8^+ cytotoxic T cells in the tumor microenvironment and to treat tumors in a mouse model of liver cancer. That is, an experimental procedure of administering pantothenic acid to mice subcutaneously transplanted with liver cancer cells (HEPA1-6). The time is expressed in days (Day, d) for administering pantothenic acid or for transplanting tumor cells.
Experimental animals: Twenty-seven C57BL/6 mice aged 3 to 4 weeks old in good mental state were purchased from the Experimental Animal Center of Sun Yat-sen University. The mice were randomly divided into 3 groups, nine mice for each group, and the 3 groups were a control group (the first group), a pantothenic acid group (the second group) and a Vitamin E control group (the third group) respectively. […] After dissection, the sizes of the subcutaneously transplanted tumors were measured, and the tumor cells were collected in situ. A relative amount of the CD8^+ T lymphocytes in the tumor microenvironment was detected and analyzed by flow cytometry.

Structure (SMILES): CC(C)(CO)[C@@H](O)C(=O)NCCC(=O)O [pantothenic acid]
- relative amount of CD8+ T lymphocytes in the tumor microenvironment (percentage of total cells) ([1]; compared with pure water control group and Vitamin E control group, statistical analysis, p<0.05, FIG. 7): significantly increases
- increase of relative amount of CD8+ T lymphocytes in the liver tumor microenvironment ([1]; compared with the Vitamin E control group): more than 3 times
- increase of relative amount of CD8+ T lymphocytes in the liver tumor microenvironment ([1]; compared with the pure water control group): more than 7 times
- reduction of size of liver cancer cell transplanted tumors [2]: about 80%
